This is an account of results in ChEMBL document CHEMBL3822439, “Discovery of a novel 6,7-disubstituted-4-(2-fluorophenoxy)quinolines bearing 1,2,3-triazole-4-carboxamide moiety as potent c-Met kinase inhibitors” (Eur J Med Chem, 2016).

Assay [1] concerns HT-29. Nature of the assay: Cytotoxicity against human HT-29 cells measured after 72 hrs by MTT assay. Conditions: HT-29, 72 h. For orientation: Tetrazolium dyes change colour on reduction, which living cells bring about.
A short description of assay [2]: Cytotoxicity against human H460 cells measured after 72 hrs by MTT assay. Conditions: NCI-H460, 72 h.
The subject of assay [3] is A549. Nature of the assay: Cytotoxicity against human A549 cells measured after 72 hrs by MTT assay. The format is functional, cell-based. The following applies: A549, 72 h.
Assay [4] is described as follows: Cytotoxicity against human MKN45 cells measured after 72 hrs by MTT assay. The format is functional, cell-based. The following applies: MKN-45, 72 h.
Assay [5] concerns the target Hepatocyte growth factor receptor (Homo sapiens, UniProt P08581). Nature of the assay: Inhibition of c-Met (unknown origin) using poly (Glu, Tyr) 4:1 as substrate incubated for 30 mins by HTRF assay. In general terms: TR-FRET usually uses a lanthanide donor and a delayed reading to cut background.
The target of assay [6] is Vascular endothelial growth factor receptor 2 (Homo sapiens, UniProt P35968). Nature of the assay: Inhibition of VEGFR2 (unknown origin) using poly (Glu, Tyr) 4:1 as substrate incubated for 30 mins by HTRF assay.
Assay [7] has as its target Mast/stem cell growth factor receptor Kit (Homo sapiens, UniProt P10721). Description: Inhibition of c-kit (unknown origin) using poly (Glu, Tyr) 4:1 as substrate incubated for 30 mins by HTRF assay.
The target of assay [8] is T1, Receptor-type tyrosine-protein kinase FLT3 (Homo sapiens, UniProt P36888).
T1 sequence (P36888 whole entry): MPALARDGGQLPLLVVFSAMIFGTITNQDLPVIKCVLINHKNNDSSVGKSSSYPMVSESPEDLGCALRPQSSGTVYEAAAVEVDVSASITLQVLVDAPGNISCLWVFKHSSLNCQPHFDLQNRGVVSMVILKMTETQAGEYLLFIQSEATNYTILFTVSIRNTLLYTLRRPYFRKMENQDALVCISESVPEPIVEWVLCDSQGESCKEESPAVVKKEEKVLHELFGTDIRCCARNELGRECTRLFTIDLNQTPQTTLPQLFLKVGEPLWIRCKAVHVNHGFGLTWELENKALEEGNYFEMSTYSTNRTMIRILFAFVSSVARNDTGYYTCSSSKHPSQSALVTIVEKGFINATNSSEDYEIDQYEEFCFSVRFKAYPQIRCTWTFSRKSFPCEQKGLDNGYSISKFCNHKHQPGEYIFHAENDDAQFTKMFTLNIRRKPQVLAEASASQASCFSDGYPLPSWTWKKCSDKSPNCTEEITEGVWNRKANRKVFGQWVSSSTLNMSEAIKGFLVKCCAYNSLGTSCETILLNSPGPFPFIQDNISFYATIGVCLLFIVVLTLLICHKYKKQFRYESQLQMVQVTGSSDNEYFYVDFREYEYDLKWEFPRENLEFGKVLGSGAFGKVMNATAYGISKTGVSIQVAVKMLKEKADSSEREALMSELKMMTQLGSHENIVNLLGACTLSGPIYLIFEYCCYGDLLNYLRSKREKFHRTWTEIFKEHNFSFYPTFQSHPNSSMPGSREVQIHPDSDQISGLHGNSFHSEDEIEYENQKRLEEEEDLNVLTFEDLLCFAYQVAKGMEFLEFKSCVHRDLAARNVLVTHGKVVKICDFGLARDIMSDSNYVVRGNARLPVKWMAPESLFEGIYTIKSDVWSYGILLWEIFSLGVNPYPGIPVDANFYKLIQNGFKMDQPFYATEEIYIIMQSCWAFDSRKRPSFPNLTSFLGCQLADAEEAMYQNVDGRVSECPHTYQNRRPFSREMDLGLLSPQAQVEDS
Nature of the assay: Inhibition of FLT3 (unknown origin) using poly (Glu, Tyr) 4:1 as substrate incubated for 30 mins by HTRF assay.

In assay [9] the target is Macrophage-stimulating protein receptor (Homo sapiens, UniProt Q04912). Description: Inhibition of Ron (unknown origin) using poly (Glu, Tyr) 4:1 as substrate incubated for 30 mins by HTRF assay.
Sequence of Macrophage-stimulating protein receptor (Q04912 25-304 limits assumed): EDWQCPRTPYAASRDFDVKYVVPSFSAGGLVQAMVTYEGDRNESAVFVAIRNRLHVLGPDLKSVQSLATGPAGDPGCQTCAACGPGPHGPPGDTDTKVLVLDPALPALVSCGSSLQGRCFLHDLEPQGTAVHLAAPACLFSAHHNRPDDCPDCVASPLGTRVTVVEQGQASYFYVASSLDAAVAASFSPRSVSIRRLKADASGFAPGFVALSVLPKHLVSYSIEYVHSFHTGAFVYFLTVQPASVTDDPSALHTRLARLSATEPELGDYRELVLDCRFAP
Sequence of Macrophage-stimulating protein receptor (Q04912 310-1400 limits assumed): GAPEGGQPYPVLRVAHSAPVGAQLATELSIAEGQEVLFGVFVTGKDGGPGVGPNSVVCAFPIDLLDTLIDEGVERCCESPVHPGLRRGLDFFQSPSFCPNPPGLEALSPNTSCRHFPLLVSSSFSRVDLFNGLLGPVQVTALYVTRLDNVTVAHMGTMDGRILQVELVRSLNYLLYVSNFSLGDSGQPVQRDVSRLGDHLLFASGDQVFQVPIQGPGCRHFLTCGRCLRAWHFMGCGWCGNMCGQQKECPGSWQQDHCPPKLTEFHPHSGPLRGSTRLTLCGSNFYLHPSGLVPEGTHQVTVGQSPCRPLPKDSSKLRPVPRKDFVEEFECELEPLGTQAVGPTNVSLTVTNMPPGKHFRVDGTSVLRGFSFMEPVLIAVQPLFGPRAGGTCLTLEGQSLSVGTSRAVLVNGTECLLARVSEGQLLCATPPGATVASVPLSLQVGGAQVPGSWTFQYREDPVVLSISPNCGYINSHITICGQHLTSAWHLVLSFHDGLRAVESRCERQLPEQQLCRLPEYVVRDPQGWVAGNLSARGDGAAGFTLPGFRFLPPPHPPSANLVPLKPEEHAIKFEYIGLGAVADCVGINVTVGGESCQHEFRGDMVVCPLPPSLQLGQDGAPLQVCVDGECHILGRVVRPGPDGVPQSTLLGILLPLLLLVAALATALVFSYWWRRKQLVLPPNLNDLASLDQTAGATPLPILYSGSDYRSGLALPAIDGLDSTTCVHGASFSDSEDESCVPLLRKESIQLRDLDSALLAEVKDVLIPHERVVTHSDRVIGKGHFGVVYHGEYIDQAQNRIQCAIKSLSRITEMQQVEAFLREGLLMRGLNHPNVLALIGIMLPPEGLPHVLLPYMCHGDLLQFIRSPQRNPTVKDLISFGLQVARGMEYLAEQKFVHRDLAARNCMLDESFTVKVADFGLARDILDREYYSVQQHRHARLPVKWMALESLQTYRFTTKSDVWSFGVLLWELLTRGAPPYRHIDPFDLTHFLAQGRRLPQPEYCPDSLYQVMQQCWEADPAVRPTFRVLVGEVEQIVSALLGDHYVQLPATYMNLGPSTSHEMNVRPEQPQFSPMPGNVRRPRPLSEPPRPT
The target of assay [10] is Epidermal growth factor receptor (Homo sapiens, UniProt P00533). Nature of the assay: Inhibition of EGFR (unknown origin) using poly (Glu, Tyr) 4:1 as substrate incubated for 30 mins by HTRF assay.
Sequence of Epidermal growth factor receptor (P00533 whole entry): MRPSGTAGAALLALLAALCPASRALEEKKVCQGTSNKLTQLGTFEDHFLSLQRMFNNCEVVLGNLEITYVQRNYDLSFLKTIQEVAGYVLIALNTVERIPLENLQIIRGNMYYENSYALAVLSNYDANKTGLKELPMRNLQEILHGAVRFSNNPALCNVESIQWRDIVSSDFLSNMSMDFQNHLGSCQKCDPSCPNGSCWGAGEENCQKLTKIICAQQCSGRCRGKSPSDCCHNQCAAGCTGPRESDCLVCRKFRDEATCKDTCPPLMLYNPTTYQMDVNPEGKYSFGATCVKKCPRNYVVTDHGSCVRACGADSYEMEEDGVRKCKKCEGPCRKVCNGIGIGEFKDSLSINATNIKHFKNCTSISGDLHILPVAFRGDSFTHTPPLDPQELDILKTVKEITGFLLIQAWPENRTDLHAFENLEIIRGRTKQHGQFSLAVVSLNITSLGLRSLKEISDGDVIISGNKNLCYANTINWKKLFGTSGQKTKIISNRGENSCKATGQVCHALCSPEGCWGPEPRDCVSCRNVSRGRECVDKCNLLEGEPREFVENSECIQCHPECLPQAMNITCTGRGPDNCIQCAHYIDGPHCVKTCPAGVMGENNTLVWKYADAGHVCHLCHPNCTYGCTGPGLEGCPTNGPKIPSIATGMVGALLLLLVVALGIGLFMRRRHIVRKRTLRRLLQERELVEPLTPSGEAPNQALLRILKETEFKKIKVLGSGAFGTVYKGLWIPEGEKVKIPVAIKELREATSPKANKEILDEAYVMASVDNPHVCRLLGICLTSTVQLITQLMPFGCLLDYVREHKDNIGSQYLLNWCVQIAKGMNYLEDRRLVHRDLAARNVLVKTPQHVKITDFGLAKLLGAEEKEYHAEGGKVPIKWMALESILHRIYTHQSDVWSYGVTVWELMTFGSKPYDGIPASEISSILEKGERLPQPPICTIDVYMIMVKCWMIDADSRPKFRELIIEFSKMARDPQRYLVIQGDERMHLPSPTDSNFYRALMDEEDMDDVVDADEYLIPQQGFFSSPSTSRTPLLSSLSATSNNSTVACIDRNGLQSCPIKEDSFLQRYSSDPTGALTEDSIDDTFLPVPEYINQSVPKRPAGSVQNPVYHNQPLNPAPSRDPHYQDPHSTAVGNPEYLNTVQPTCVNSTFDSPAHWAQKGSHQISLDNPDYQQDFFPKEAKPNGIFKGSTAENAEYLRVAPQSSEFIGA
In assay [11] the test system is HT-29. Description: Potency index, ratio of foretinib IC50 to compound IC50 for human HT-29 cells. It is filed as functional.
Assay [12] is described as follows: Potency index, ratio of foretinib IC50 to compound IC50 for human H460 cells. It is filed as functional.
Assay [13] relates to A549. Description: Potency index, ratio of foretinib IC50 to compound IC50 for human A549 cells. It is filed as functional.
Assay [14] deals with MKN-45. Nature of the assay: Potency index, ratio of foretinib IC50 to compound IC50 for human MKN45 cells. The format is functional.

Sequence of Hepatocyte growth factor receptor (P08581 whole entry): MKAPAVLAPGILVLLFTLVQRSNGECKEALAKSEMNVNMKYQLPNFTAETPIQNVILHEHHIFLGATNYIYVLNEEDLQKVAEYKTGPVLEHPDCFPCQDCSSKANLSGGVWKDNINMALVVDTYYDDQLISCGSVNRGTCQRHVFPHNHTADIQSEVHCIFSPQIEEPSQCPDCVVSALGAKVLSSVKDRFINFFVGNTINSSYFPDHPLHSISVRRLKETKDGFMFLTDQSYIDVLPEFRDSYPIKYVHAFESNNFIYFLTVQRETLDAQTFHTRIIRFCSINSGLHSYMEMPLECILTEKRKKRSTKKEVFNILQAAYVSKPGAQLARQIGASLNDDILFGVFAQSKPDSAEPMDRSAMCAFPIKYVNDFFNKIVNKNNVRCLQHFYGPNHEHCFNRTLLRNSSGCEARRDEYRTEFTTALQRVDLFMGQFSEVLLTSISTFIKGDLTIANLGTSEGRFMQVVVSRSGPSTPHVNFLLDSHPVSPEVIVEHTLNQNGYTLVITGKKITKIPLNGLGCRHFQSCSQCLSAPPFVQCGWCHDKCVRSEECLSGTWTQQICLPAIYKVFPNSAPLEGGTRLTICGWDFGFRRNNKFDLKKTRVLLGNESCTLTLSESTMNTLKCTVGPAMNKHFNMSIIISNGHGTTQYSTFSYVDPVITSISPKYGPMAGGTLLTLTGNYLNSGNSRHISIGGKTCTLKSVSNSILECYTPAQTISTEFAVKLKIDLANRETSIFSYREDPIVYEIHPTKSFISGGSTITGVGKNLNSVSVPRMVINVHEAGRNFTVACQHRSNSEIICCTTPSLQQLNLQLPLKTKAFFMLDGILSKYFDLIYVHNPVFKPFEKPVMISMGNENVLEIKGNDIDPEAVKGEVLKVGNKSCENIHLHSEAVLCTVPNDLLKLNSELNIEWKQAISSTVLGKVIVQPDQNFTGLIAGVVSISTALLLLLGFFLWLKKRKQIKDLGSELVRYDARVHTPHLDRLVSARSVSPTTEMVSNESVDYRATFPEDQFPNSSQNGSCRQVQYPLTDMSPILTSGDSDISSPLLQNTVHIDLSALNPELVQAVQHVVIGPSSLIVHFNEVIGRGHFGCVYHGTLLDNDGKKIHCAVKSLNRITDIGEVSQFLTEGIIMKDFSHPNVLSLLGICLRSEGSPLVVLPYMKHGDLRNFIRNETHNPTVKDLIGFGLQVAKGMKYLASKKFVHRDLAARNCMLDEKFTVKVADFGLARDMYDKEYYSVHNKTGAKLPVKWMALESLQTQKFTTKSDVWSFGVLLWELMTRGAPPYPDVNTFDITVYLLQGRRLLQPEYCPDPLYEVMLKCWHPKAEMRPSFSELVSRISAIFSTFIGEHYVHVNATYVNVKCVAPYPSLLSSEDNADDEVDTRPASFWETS
Sequence of Mast/stem cell growth factor receptor Kit (P10721 whole entry): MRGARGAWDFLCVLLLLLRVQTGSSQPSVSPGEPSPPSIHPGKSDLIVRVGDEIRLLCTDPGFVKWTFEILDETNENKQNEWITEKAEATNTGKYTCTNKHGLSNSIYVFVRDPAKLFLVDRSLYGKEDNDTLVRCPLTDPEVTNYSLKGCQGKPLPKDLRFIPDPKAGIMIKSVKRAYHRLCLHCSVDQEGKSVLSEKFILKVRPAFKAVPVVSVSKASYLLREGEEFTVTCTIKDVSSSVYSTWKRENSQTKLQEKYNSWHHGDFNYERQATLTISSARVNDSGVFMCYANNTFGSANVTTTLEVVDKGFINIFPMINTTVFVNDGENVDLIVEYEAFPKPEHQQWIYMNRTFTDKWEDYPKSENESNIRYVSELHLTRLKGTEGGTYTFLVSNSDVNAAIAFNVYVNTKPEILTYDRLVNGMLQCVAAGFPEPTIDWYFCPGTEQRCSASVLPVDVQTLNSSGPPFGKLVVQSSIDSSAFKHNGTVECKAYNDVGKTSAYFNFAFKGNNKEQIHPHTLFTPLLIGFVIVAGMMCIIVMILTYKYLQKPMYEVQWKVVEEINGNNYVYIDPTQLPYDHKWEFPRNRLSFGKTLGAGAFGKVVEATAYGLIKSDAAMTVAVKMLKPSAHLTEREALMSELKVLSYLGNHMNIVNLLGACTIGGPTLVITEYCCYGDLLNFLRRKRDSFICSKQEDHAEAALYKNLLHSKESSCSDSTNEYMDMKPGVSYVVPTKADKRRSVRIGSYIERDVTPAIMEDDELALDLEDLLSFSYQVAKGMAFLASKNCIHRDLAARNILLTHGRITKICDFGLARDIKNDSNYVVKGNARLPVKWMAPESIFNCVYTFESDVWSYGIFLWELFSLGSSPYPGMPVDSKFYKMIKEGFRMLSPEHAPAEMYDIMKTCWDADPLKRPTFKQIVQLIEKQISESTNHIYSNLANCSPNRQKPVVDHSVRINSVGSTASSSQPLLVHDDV

A word on the IC50: it is the midpoint of a concentration-inhibition curve. Read a high IC50 as weaker potency in that assay. `COc1cc2c(Oc3ccc(NC(=O)c4cn(-c5ccccc5Cl)nn4)cc3F)ccnc2cc1OCCCN1CCCCC1`: the IC50 came to 0.1 µM in assay [1]; 0.18 µM in assay [2]; 0.07 µM in [3]; 0.03 µM in assay [4]; 0.00227 µM in assay [5]; 0.0967 µM in assay [6]. Further, the IC50 was found to be 0.00936 µM in assay [7], 0.00891 µM in assay [8], 0.346 µM in assay [9] and 0.529 µM in [10]. The “Ratio IC50” value amounted to 1.9 in assay [11], 1.2 in assay [12], 1.6 in assay [13] and 1.1 in assay [14].
